Test results published in patent US9629828B2, “Methods of treating traveler's diarrhea and hepatic encephalopathy” (priority 2008, dated 2017).
“Also recorded” adds a separate entry of the source. Marks after values point to notes of the source that are not given here.

How the values were obtained:
patients with HE = assay: Rifaximin 1200 mg/day: effect on blood ammonia and HE grade (50 patients); format: in vivo, human; details: for effect on HE grade: 1200 mg/day; for effect on blood ammonia: 1200 mg/day for 5-10 days
Description: Correlation between ammonia reduction over time and HE was examined.
While discrete blood ammonia concentrations may be variable, serial measurements in individual patients have been associated with HE severity.

[1] = system: subjects in remission from hepatic encephalopathy (HE); assay: First study: asterixis grade (time to any increase, change from baseline); format: in vivo, human; details: for Probability of no increase in asterixis grade: Kaplan-Meier; for Probability of no increase in asterixis grade / Cumulative number of events (increase in asterixis grade) / Event probability (increase in asterixis grade during the treatment interval) / Number of events (increase in asterixis grade): ITT, N = 140
Experimental: Asterixis (flapping tremor) was determined with the subject holding both arms and forearms extended with wrists dorsiflexed and fingers open for ≧30 seconds. Asterixis was measured on a continuum of 5 grades, e.g., grades 0 and 4=no abnormal movement vs. almost continuous flapping motions, respectively as shown below:
Efficacy in regard to asterixis grade was measured as time to any increase from baseline in asterixis grade.
FIG. 12 illustrates time to any increase from baseline in asterixis grade by treatment group in the ITT population in the first study. Table 21 presents estimates of the proportions of subjects who had any increase in asterixis grade over the course of the Treatment Period and results of statistical analyses. Subjects who discontinued prior to experiencing an increase in asterixis grade and prior to completion of the 6-month treatment period were censored at the time of discontinuation.

[2] = system: subjects in remission from hepatic encephalopathy (HE); assay: First study: critical flicker frequency (CFF) test; format: in vivo, human; details: for Critical flicker frequency test: r9 Mean, r11 Median, r12 Min, r13 Max; for Mean (SD) change in CFF result: baseline to end of treatment
Experimental: The Critical Flicker Frequency (CFF) was assessed for each subject at screening, baseline, visits 3 through 14 and the end of study visit using the Lafayette Flicker Fusion (Lafayette Instrument Company, Inc). Circular light pulses with a 1:1 ratio between the visual impulse and the interval were used with decreasing frequency in gradual steps of 0.5 to 0.1 Hz/second. The frequency of the white light, which is initially generated as a high-frequency pulse (50 Hz) and which gives the patient the impression of a steady light, was reduced gradually until the patient had the impression that the steady light had changed to a flicker. The patient registered this change by pressing a hand-held switch. […] The process was conducted in a quiet, semi-darkened room without distracting noises and took about 10 minutes.
The critical flicker frequency (CFF) was assessed for each subject using a specialized CFF instrument. The CFF is the frequency at which the subject observes a constant light transition to a flickering light and is measured in Hertz (Hz). CFF is an objective assessment of mental status.
The CFF was measured on a continuous scale and was the mean of 8 separate fusion-to-flicker transition tests performed in rapid succession.
Mean values and mean changes from baseline in blood ammonia concentration and critical flicker frequency values were collected. Analyses of blood ammonia concentrations and critical flicker frequency values were based upon quantitative values (not qualitative grades). Treatment differences for mean change from baseline in these parameters was estimated using a mixed effects model with fixed effects for time and baseline value.

[3] = system: adult subjects with travelers' diarrhea; assay: Travelers' diarrhea Study 1: clinical response (TLUS, clinical cure); format: in vivo, human
Experimental: One study was conducted at clinical sites in Mexico, Guatemala, and Kenya (Study 1). The other study was conducted in Mexico, Guatemala, Peru, and India (Study 2). Stool specimens were collected before treatment and 1 to 3 days following the end of treatment to identify enteric pathogens. The predominant pathogen in both studies was Escherichia coli.
The clinical efficacy of rifaximin was assessed by the time to return to normal, formed stools and resolution of symptoms. The primary efficacy endpoint was time to last unformed stool (TLUS) which was defined as the time to the last unformed stool passed, after which clinical cure was declared. […] More patients treated with rifaximin were classified as clinical cures than were those in the placebo group.

[4] = both, human, in vivo
Experimental: Two studies evaluated the pharmacokinetics of rifaximin in patients with hepatic impairment. […] Because of the limited systemic absorption of rifaximin, no specific dosing adjustments are recommended for patients with hepatic insufficiency.
A pharmacokinetic investigation was performed in subjects with HE in a dose-finding study.

[5] = treatment interval 0 to <28 days
[6] = treatment interval 28 to <56 days
[7] = treatment interval 56 to <84 days
[8] = treatment interval 84 to <140 days
[9] = treatment interval 140 to <168 days

**Q.** For `CO[C@H]1/C=C/O[C@@]2(C)Oc3c(C)c(O)c4c(O)c(c5c(nc6cc(C)ccn65)c4c3C2=O)NC(=O)/C(C)=C\C=C\[C@H](C)[C@H](O)[C@@H](C)[C@@H](O)[C@@H](C)[C@H](OC(C)=O)[C@@H]1C` [rifaximin, (2S,16Z,18E,20S,21S,22R,23R,24R,25 S,26S,27S,28E)-5,6,21,23,25-pentahydroxy-27-methoxy-2,4,11,16,20,22,24,26-octamethyl-2,7-(epoxypentadeca-[1,11,13]trienimino)benzofuro[4,5-e]pyrido[1,2-á]-benzimidazole-1,15(2H)-dione,25-acetate], which “effect on HE grade” value (patients with HE) is on record?
**A.** Its value is “significant improvement in overall HE grade”.

**Q.** And the “effect on blood ammonia” value (patients with HE)?
**A.** The value was “statistically significant blood ammonia reduction; also recorded: lowers ammonia levels”.

**Q.** And the “effect on blood ammonia” value (patients with HE; listed as Rifaximin)?
**A.** The value was “decreased blood ammonia”.

**Q.** And the “effect on HE grade” value (patients with HE; listed as Rifaximin)?
**A.** Its value is “improvement in HE grade”.

**Q.** What about the “Number of subjects in each level of change from baseline in asterixis grade” value ([1]; Baseline to EOT, level: r10 −2, r11 −1, r12 0, r13 1, r14 2, r15 3, r16 4) of the same molecule?
**A.** Its value is 18 (12.9%) n (%).

**Q.** And the “Probability of no increase in asterixis grade” value (from here on “Probability of no increase”) [1, 5]?
**A.** The value was 1.0000.

**Q.** And the “Probability of no increase” value [1, 6]?
**A.** The value was 0.9048.

**Q.** What about the “Probability of no increase” value [1, 7] of the same molecule?
**A.** Its value is 0.8499.

**Q.** What about the “Probability of no increase” value [1, 8] of the same molecule?
**A.** Its value is 0.7910.

**Q.** And the “Probability of no increase” value [1, 9]?
**A.** The value was 0.7637.

**Q.** What about the “Probability of no increase” value ([1]; treatment interval ≧168 days) of the same molecule?
**A.** The value was 0.7534.

**Q.** And the “subjects with changes in asterixis grade of 1, 2, 3, or 4” value ([1]; baseline to end of treatment)?
**A.** Its value is 11.6%.

**Q.** What about the “subjects with changes in asterixis grade of −2, −1, and 0” value ([1]; baseline to end of treatment) of the same molecule?
**A.** The value was 88.5%.

**Q.** And the “prevention of worsening of asterixis grade, times versus placebo” value ([1]; in vivo)?
**A.** Its value is 1.92 times.

**Q.** What about the “reduction in risk of worsening of asterixis” value ([1]; in vivo) of the same molecule?
**A.** The value was 35%.

**Q.** What about the “subjects with increases in asterixis grade” value ([1]; in vivo) of the same molecule?
**A.** The value was 32 of 140.

**Q.** And the “time to first increase in Asterixis grade vs placebo (FIG. 5)” value ([1]; in vivo)?
**A.** Its value is “increased time to the first increase in Asterixis grade”.

**Q.** What about the “Cumulative number of events (increase in asterixis grade)” value [1, 5] of the same molecule?
**A.** Its value is 13.

**Q.** What about the “Event probability (increase in asterixis grade during the treatment interval)” value [1, 5] of the same molecule?
**A.** The value was 0.10.

**Q.** What about the “Number of events (increase in asterixis grade)” value [1, 5] of the same molecule?
**A.** The value was 13.

**Q.** What about the “Cumulative number of events (increase in asterixis grade)” value [1, 6] of the same molecule?
**A.** Its value is 20.

**Q.** And the “Event probability (increase in asterixis grade during the treatment interval)” value [1, 6]?
**A.** The value was 0.06.

**Q.** And the “Number of events (increase in asterixis grade)” value [1, 6]?
**A.** The value was 7.

**Q.** And the “Cumulative number of events (increase in asterixis grade)” value [1, 7]?
**A.** The value was 27.

**Q.** And the “Event probability (increase in asterixis grade during the treatment interval)” value [1, 7]?
**A.** The value was 0.07.

**Q.** And the “Number of events (increase in asterixis grade)” value [1, 7]?
**A.** The value was 7.

**Q.** What about the “Cumulative number of events (increase in asterixis grade)” value [1, 8] of the same molecule?
**A.** Its value is 30.

**Q.** What about the “Event probability (increase in asterixis grade during the treatment interval)” value [1, 8] of the same molecule?
**A.** Its value is 0.03.

**Q.** And the “Number of events (increase in asterixis grade)” value [1, 8]?
**A.** Its value is 3.

**Q.** And the “Cumulative number of events (increase in asterixis grade)” value [1, 9]?
**A.** The value was 31.

**Q.** And the “Event probability (increase in asterixis grade during the treatment interval)” value [1, 9]?
**A.** The value was 0.01.

**Q.** And the “Number of events (increase in asterixis grade)” value [1, 9]?
**A.** Its value is 1.

**Q.** And the “Cumulative number of events (increase in asterixis grade)” value ([1]; treatment interval ≧168 days)?
**A.** The value was 32.

**Q.** What about the “Event probability (increase in asterixis grade during the treatment interval)” value ([1]; treatment interval ≧168 days) of the same molecule?
**A.** The value was 0.03.

**Q.** What about the “Number of events (increase in asterixis grade)” value ([1]; treatment interval ≧168 days) of the same molecule?
**A.** The value was 1.

**Q.** What about the “Mean (SD) CFF result” value ([2]; Baseline) of the same molecule?
**A.** Its value is 36.90 (5.47) Hz.

**Q.** What about the “Critical flicker frequency test” value ([2]; Day 140, mean) of the same molecule?
**A.** Its value is 38.7 Hz.

**Q.** What about the “Critical flicker frequency test” value ([2]; Day 140, median) of the same molecule?
**A.** Its value is 38.9 Hz.

**Q.** And the “Critical flicker frequency test” value ([2]; EOT, median)?
**A.** Its value is 37.8 Hz.

**Q.** What about the “Mean (SD) CFF result” value ([2]; End of treatment) of the same molecule?
**A.** Its value is 37.81 (4.88) Hz.

**Q.** And the “Mean (SD) change in CFF result” value [2]?
**A.** The value was 0.945 (±4.75) Hz.

**Q.** And the “Mean (SD) change in CFF result” value ([2]; listed as Rifaximin)?
**A.** The value was 0.945 (4.75) Hz.

**Q.** And the “improvement in CFF results compared with placebo” value ([2]; in vivo)?
**A.** The value was “statistically significant greater improvement”.

**Q.** And the “Median TLUS” value ([3]; 200 mg TID 3 days, ITT n = 125)?
**A.** Its value is 32.5 h.

**Q.** What about the “Difference in rates of clinical cure vs placebo” value ([3]; ITT) of the same molecule?
**A.** The value was 18.7^b.

**Q.** And the Clinical cure ([3]; ITT n = 125)?
**A.** Its Clinical cure is 99 (79.2) n (%).

**Q.** What about the “mean amount recovered in 24-h urine after last dose” value [4] of the same molecule?
**A.** Its value is 0.06-0.1 % of dose.

**Q.** And the “administered dose recovered in urine” value ([4]; 7 days)?
**A.** The value was “less than 0.1%”.
